Measured values taken from article PMC4138103 (PLoS ONE, 2014).
Like-named read-outs stand apart in the source and are kept apart here.

Assays:
[1] = test system: Sprague-Dawley rats; assay: Serum steroids and gonadotropins; format: in vivo, Rattus norvegicus; settings: for CED, Serum FSH / CED, Serum LH / CED-L, Serum FSH / CED-L, Serum LH: adipose tissue concentration based; for Emax: Rattus norvegicus; for Estradiol / LH / Progesterone / FSH / Testosterone: group mean; for Serum FSH, CED / Serum FSH, CED-L / Serum LH, CED / Serum LH, CED-L: total dose based
Description: Serum testosterone, estradiol and progesterone concentrations were measured by time-resolved immunofluorometric assay, DELFIA (PerkinElmer Life and Analytical Sciences, Turku, Finland) after diethyl ether (Merck KGaA, Darmstadt, Germany) extraction. Ether-extracted serum samples were reconstituted to DELFIA Diluent II buffer (PerkinElmer Life and Analytical Sciences, Turku, Finland) and used for analysis. The sensitivity of the assay was 100 pg/ml for testosterone, 13.6 pg/ml for estradiol and 250 pg/ml for progesterone. The intra- and interassay coefficients of variation (CV) were below 6 and 12%, respectively. To enhance the sensitivity, commercial tracer and antiserum were additionally diluted 5∶8 with assay buffer (PerkinElmer Life and Analytical Sciences, Turku, Finland) in testosterone assay. For estradiol and progesterone, dilution rate was 1∶2. Serum follicle stimulating hormone (FSH) and luteinizing hormone (LH) levels were determined from unextracted samples by DELFIA as described previously, [31].
Data were also analyzed using the BMD method, which is based on dose-response modeling of the full data set using a nested family of exponential and Hill models. The analyses were done on data of males and females combined, using sex as a covariate. […] In that case, different Critical Effect Doses (CEDs) and CEDs at the lowest bound of the confidence interval (CED-L) were generated for each sex. If no difference between sexes is detected, a CED and CED-Ls for the combined data is generated. However, this was also done if the curve fits are close, and separate analyses for males and females were then performed manually. CEDs and CED-Ls were calculated at the predefined Critical Effect Size (CES) of 5% (EFSA standard) or 10%.

[2] = cited from earlier work
[3] = rats; cited from earlier work
[4] = females, total dose 10 mg/kg bw
[5] = females, total dose 30 mg/kg bw
[6] = females, total dose 100 mg/kg bw
[7] = females, total dose 300 mg/kg bw
[8] = females, total dose 1000 mg/kg bw
[9] = females, total dose 1700 mg/kg bw
[10] = males, total dose 1000 mg/kg bw
[11] = males, total dose 1700 mg/kg bw

With `Clc1cc(Cl)c(-c2cc(Cl)c(Cl)c(Cl)c2Cl)cc1Cl` [PCB 180, 2,2′,3′,4,4′,5,5′-heptachlorobiphenyl] the “CED, Serum FSH” value ([1]; M, CES 5%, model E2) was 1600 µg/g lipid, the “CED, Serum LH” value ([1]; M, CES 5%, model E2) was 1160 µg/g lipid and the “CED-L, Serum FSH” value ([1]; M, CES 5%, model E2) was 1116 µg/g lipid. For the same compound, the “CED-L, Serum LH” value ([1]; M, CES 5%, model E2) was 648 µg/g lipid, the “CED, Serum FSH” value ([1]; M, CES 10%, model E2) was 3290 µg/g lipid and the “CED, Serum LH” value ([1]; M, CES 10%, model E2) was 2390 µg/g lipid. The “CED-L, Serum FSH” value ([1]; M, CES 10%, model E2) was 2292 µg/g lipid, the “CED-L, Serum LH” value ([1]; M, CES 10%, model E2) was 1331 µg/g lipid and the Emax ([1]; males, controls vs high dose, fitted model, read-out: Serum FSH, Maximum response) was -20.6%. For the same compound, the Emax ([1]; males, controls vs high dose, fitted model, read-out: Serum LH, Maximum response) was -27.9%, the Emax ([1]; M, model E2, controls vs high dose according to the fitted model, read-out: Maximum response, Serum FSH) was -21.1% and the Emax ([1]; M, model E2, controls vs high dose according to the fitted model, read-out: Maximum response, Serum LH) was -27.8%. It also gave an Estradiol ([1]; females, total dose 3 mg/kg bw) of 20.2 pg/mL, an LH ([1]; females, total dose 3 mg/kg bw) of 1.51 ng/mL and a Progesterone ([1]; females, total dose 3 mg/kg bw) of 37.1 ng/mL. For the same compound, the Estradiol [1, 4] was 23.6 pg/mL, the LH [1, 4] was 2.57 ng/mL and the Progesterone [1, 4] was 18.0 ng/mL. The Estradiol [1, 5] was 18.8 pg/mL, the LH [1, 5] was 1.81 ng/mL and the Progesterone [1, 5] was 22.3 ng/mL. The Estradiol [1, 6] was 21.4 pg/mL, the LH [1, 6] was 1.96 ng/mL and the Progesterone [1, 6] was 33.0 ng/mL. For the same compound, the Estradiol [1, 7] was 15.4 pg/mL, the LH [1, 7] was 2.02 ng/mL and the Progesterone [1, 7] was 27.5 ng/mL. The Estradiol [1, 8] was 17.4 pg/mL, the LH [1, 8] was 1.39 ng/mL and the Progesterone [1, 8] was 27.7 ng/mL. For the same compound, the Estradiol [1, 9] was 17.6 pg/mL, the LH [1, 9] was 1.77 ng/mL and the Progesterone [1, 9] was 22.7 ng/mL. For the same compound, the “FSH, Dose response” value ([1]; males) was “D, T”, the “LH, Dose response” value ([1]; males) was “D, T” and the “Serum FSH, CED” value ([1]; males, CES 5%) was 377 mg/kg bw. The “Serum FSH, CED-L” value ([1]; males, CES 5%) was 263 mg/kg bw, the “Serum LH, CED” value ([1]; males, CES 5%) was 266 mg/kg bw and the “Serum LH, CED-L” value ([1]; males, CES 5%) was 150 mg/kg bw. The “Serum FSH, CED” value ([1]; males, CES 10%) was 775 mg/kg bw, the “Serum FSH, CED-L” value ([1]; males, CES 10%) was 540 mg/kg bw and the “Serum LH, CED” value ([1]; males, CES 10%) was 547 mg/kg bw. For the same compound, the “Serum LH, CED-L” value ([1]; males, CES 10%) was 309 mg/kg bw, the FSH ([1]; males, total dose 3 mg/kg bw) was 8.23 ng/mL and the LH ([1]; males, total dose 3 mg/kg bw) was 1.23 ng/mL. For the same compound, the Testosterone ([1]; males, total dose 3 mg/kg bw) was 2.35 ng/mL, the FSH ([1]; males, total dose 10 mg/kg bw) was 8.54 ng/mL and the LH ([1]; males, total dose 10 mg/kg bw) was 0.91 ng/mL. The Testosterone ([1]; males, total dose 10 mg/kg bw) was 2.66 ng/mL, the FSH ([1]; males, total dose 30 mg/kg bw) was 7.44 ng/mL and the LH ([1]; males, total dose 30 mg/kg bw) was 0.99 ng/mL. The Testosterone ([1]; males, total dose 30 mg/kg bw) was 1.92 ng/mL, the FSH ([1]; males, total dose 100 mg/kg bw) was 7.88 ng/mL and the LH ([1]; males, total dose 100 mg/kg bw) was 0.84 ng/mL. It also gave a Testosterone ([1]; males, total dose 100 mg/kg bw) of 3.21 ng/mL, an FSH ([1]; males, total dose 300 mg/kg bw) of 7.66 ng/mL and an LH ([1]; males, total dose 300 mg/kg bw) of 1.03 ng/mL. For the same compound, the Testosterone ([1]; males, total dose 300 mg/kg bw) was 2.04 ng/mL, the FSH [1, 10] was 7.49 ng/mL and the LH [1, 10] was 0.77 ng/mL. The Testosterone [1, 10] was 2.18 ng/mL, the FSH [1, 11] was 6.49 ng/mL and the LH [1, 11] was 0.75 ng/mL. For the same compound, the Testosterone [1, 11] was 1.85 ng/mL, the Elimination half-life ([2]; adult humans, estimated) was 11.5 years and the Elimination half-life ([2]; early adolescent children) was 9.8 years. For the same compound, the Elimination half-life [3] was 90 days.
